In patent publication US8664252B2, “Phosphodiesterase type III (PDE III) inhibitors or CA2+-sensitizing agents for the treatment of hypertrophic cardiomyopathy” (Boehringer Ingelheim Vetmedica GmbH, priority 2008, dated 2014):

Test system: Cats Suffering from HCM
Assay: Treatment of a cat suffering from HCM with acute circulatory failure (clinical case)
Type: in vivo
Experimental: A 15 year old castrated male tomcat of mixed breed (mother Persian, father European short hair, bodyweight 6 kg) was brought to the veterinary clinic in March 2008. The animal was lethargic and unable to move. Examination of the cardiovascular system indicated acute circulatory failure, accompanied with tachycardia (>180 bpm). Echocardiographic investigation indicated a thickened left ventricular wall and septum, which are related to HCM.
Because of the desperate situation 1.25 mg pimobendan were applied orally with the expectation/fear that this measure would/could probably further deteriorate the status of the cat.
This treatment is still being continued.

Row | Structure (SMILES) | control of acute circulatory failure (clinical situation) (15 year old tomcat with HCM, 6 kg, furosemide 1 mg/kg i.v., immediate administration) | clinical symptoms / recovery (same cat, after insufficient furosemide, 1.25 mg pimobendan orally, single application) | left ventricular filling and systolic function (ultrasound) (same cat, continued treatment 20 microgram/kg/day pimobendan orally)
1 | NS(=O)(=O)c1cc(C(=O)O)c(NCc2ccco2)cc1Cl [furosemide] | did not result in a sufficient control of the situation | – | –
2 | COc1ccc(-c2nc3cc(C4=NNC(=O)CC4C)ccc3[nH]2)cc1 (stereo not drawn) [pimobendan, 4,5-dihydro-6-[2-(4-methoxyphenyl)-1H-benzimidazol-5-yl]-5-methyl-3 (2H)-pyridazinone] | – | clinical symptoms improved and the cat recovered within a few hours | significant recovery of left ventricular filling and systolic function
